# Earlier results, collected in article PMC4891020, “Preclinical evaluation of a nanoformulated antihelminthic, niclosamide, in ovarian cancer” (Oncotarget, 2016).
# Columns and labels:
# [1] = parameters: method as in earlier work
structure (smiles),measurement,setting,value
"O=C(Nc1ccc([N+](=O)[O-])cc1Cl)c1cc(Cl)ccc1O [Niclosamide, niclosamide]",water solubility,[1],0.23 µg/mL
same,systemic bioavailability when administered orally,,~10%
